In patent US12060349B2, “Glucosylceramide synthase inhibitors” (Genzyme Corporation, priority 2012, dated 2024):
pIC50: −log10 of the molar value. Read-outs that look alike come from different tables or passages of the source.

Legend:
[1] = molecular target: T1, glucosylceramide synthase (Homo sapiens, UniProt Q16739); test: microsomal assay measuring conversion of ceramide to glucosylceramide by HPLC (GCS IC50); assay type: biochemical; conditions: concentration causing 50% inhibition of glucosylceramide synthase activity
T1 construct: Microsomes were isolated from A375 human melanoma cells; endogenous in cells; host or cells: A375 human melanoma cells (microsomal fraction, 100,000 g pellet)
T1 sequence (Q16739 1-394): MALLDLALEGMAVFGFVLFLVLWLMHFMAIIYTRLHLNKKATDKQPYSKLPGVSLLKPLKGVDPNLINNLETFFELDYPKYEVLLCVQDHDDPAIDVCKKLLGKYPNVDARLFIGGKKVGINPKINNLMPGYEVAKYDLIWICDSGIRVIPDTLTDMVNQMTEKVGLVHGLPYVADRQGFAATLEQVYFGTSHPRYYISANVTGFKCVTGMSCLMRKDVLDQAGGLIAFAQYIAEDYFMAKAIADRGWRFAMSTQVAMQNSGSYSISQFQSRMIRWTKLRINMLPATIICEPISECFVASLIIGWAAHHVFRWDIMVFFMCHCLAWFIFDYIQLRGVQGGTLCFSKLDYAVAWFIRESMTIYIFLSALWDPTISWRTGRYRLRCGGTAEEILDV
Procedure: Inhibition of glucosylceramide synthase activity for certain compounds of the invention were measured with 1) a microsomal assay that directly measures the conversion of ceramide to glucosylceramide by HPLC and 2) second, cell based, phenotypic assay that monitors cell surface expression of the downstream lipid GM3 by antibody mediated immunofluorescence. The cell based assay was performed in two different cell types, B16 and C32. Cell viability was also assessed in the second, cell-based assay.
The “Compound Number” in the table corresponds to the compound disclosed in the Example of the same number. The results of the microsomal assay are expressed as “GCS IC50”, which represents the concentration of the compound causing 50% inhibition of glucosylceramide synthase activity. The results of the cell based assays (performed in two different cell systems, i.e. B16 mouse melanoma or C32 human melanoma cells) are expressed as “GM3 B16 IC50” or “GM3 C32 IC50” for the B16 assay and the C32 assay, respectively. These values represent the concentration of the compound causing 50% inhibition of GM3 expression on the cell surface. The results of the viability assays are expressed as “Viability, B16 IC50” or “Viability, C32 IC50”, respectively. These values represent the concentration of the compound causing 50% cell death. Values greater than 10 represent a lack of cell death.

[2] = system: GM3 expression on the cell surface, C32 human melanoma cells; test: cell based phenotypic assay, cell surface GM3 by antibody mediated immunofluorescence, C32 (GM3 C32 IC50); conditions: 50% inhibition of GM3 expression on the cell surface
Procedure: (§1) The cell based assay was performed in two different cell types, B16 and C32. Cell viability was also assessed in the second, cell-based assay.
(§2) The “Compound Number” in the table corresponds to the compound disclosed in the Example of the same number. […] The results of the cell based assays (performed in two different cell systems, i.e. B16 mouse melanoma or C32 human melanoma cells) are expressed as “GM3 B16 IC50” or “GM3 C32 IC50” for the B16 assay and the C32 assay, respectively. […] The results of the viability assays are expressed as “Viability, B16 IC50” or “Viability, C32 IC50”, respectively. These values represent the concentration of the compound causing 50% cell death. Values greater than 10 represent a lack of cell death.

[3] = system: GM3 expression on the cell surface, B16 mouse melanoma cells; test: cell based phenotypic assay, cell surface GM3 by antibody mediated immunofluorescence, B16 (GM3 B16 IC50); conditions: 50% inhibition of GM3 expression on the cell surface
Procedure: as §1, §2

C32 human melanoma cells = test: cell viability in the C32 cell-based assay (Viability, C32 IC50)
Procedure: as §1, §2

B16 mouse melanoma cells = test: cell viability in the B16 cell-based assay (Viability, B16 IC50)
Procedure: as §1, §2

[4] = C32 human melanoma cells, read-out: GM3 C32 IC50
[5] = B16 mouse melanoma cells, read-out: GM3 B16 IC50
[6] = C32 cells; concentration causing 50% cell death; values greater than 10 represent a lack of cell death; read-out: Viability, C32 IC50
[7] = B16 cells; concentration causing 50% cell death; values greater than 10 represent a lack of cell death; read-out: Viability, B16 IC50
[8] = Mus musculus, B16, B16 cells; concentration causing 50% cell death; values greater than 10 represent a lack of cell death; read-out: Viability, B16 IC50
[9] = Homo sapiens, C32, C32 cells; concentration causing 50% cell death; values greater than 10 represent a lack of cell death; read-out: Viability, C32 IC50
[10] = Homo sapiens, C32 human melanoma cells, read-out: GM3 C32 IC50
[11] = Mus musculus, B16 mouse melanoma cells, read-out: GM3 B16 IC50
[12] = Homo sapiens, read-out: GM3 C32 IC50, C32 human melanoma cells
[13] = Mus musculus, read-out: GM3 B16 IC50, B16 mouse melanoma cells
[14] = read-out: Viability, C32 IC50; C32 cells; concentration causing 50% cell death; values greater than 10 represent a lack of cell death
[15] = read-out: Viability, B16 IC50; B16 cells; concentration causing 50% cell death; values greater than 10 represent a lack of cell death

| Compound | pIC50 [1] | pIC50 [2, 4] | pIC50 [3, 5] | pIC50 (B16 mouse melanoma cells; [8]) | pIC50 (C32 human melanoma cells; [9]) | pIC50 [2, 10] | pIC50 [3, 11] | also measured |
| --- | --- | --- | --- | --- | --- | --- | --- | --- |
| C[C@H]1CN(C(=O)NC2(C)CCN3CCC2CC3)CCN1c1nccc(-c2ccccc2)n1 (single isomer, unassigned) [Example 140] | 7.33 | 6.24 | 5.04 | – | – | – | – | pIC50 (C32 human melanoma cells; [6]): 5.50; pIC50 (B16 mouse melanoma cells; [7]): 5.19 |
| CCC1(NC(=O)NC2(c3ccc(-c4ccc(COCCOC)cc4)cc3)CC2)CN2CCC1CC2 (single isomer, unassigned) [Example 208, 1-(3-Ethylquinuclidin-3-yl)-3-(1-(4′-((2-methoxyethoxy)methyl)-[1,1′-biphenyl]-4-yl)cyclopropyl)urea] | 5.57 | 7.13 | 6.01 | ≤ 5.00 | – | – | – | pIC50 (C32 human melanoma cells; [6]): ≤ 5.00 |
| CCC1(NC(=O)NC2(c3ccc(-c4ccc(COCCOC)cc4)cc3)CC2)CN2CCC1CC2 (single isomer, unassigned) [Example 209, 1-(3-Ethylquinuclidin-3-yl)-3-(1-(4′-((2-methoxyethoxy)methyl)-[1,1′-biphenyl]-4-yl)cyclopropyl)urea] | 7.76 | 8.98 | 7.41 | – | – | – | – | pIC50 (C32 human melanoma cells; [6]): 5.75; pIC50 (B16 mouse melanoma cells; [7]): ≤ 5.00 |
| COCCOc1ccc(-c2ccc(C(C)(C)NC(=O)OC3CCN4CCC3CC4)nc2)cc1 (single isomer, unassigned) [Example 348, 1-Azabicyclo[3.2.2]nonan-4-yl 2-(5-(4-(2-methoxyethoxy)phenyl)pyridin-2-yl)propan-2-ylcarbamate] | 7.56 | 8.45 | 7.06 | ≤ 5.00 | 6.00 | – | – | – |
| COCCOc1ccc(-c2ccc(C(C)(C)NC(=O)OC3CCN4CCC3CC4)nc2)cc1 (single isomer, unassigned) [Example 349, 1-Azabicyclo[3.2.2]nonan-4-yl 2-(5-(4-(2-methoxyethoxy)phenyl)pyridin-2-yl)propan-2-ylcarbamate] | 6.60 | 7.84 | 6.63 | – | – | – | – | pIC50 (C32 human melanoma cells; [6]): 6.00; pIC50 (B16 mouse melanoma cells; [7]): ≤ 5.00 |
| CC1(NC(=O)N2CCN(c3ccc(-c4ccccc4)cc3)CC2)CN2CCC1CC2 (centres unmarked) [Example 1, 4-([1,1′-Biphenyl]-4-yl)-N-(3-methylquinuclidin-3-yl)piperazine-1-carboxamide] | 6.14 | – | – | 5.15 | ≤ 5.00 | 6.96 | 5.90 | – |
| O=C(NC1CN2CCC1CC2)N1CCN(c2ccc(-c3ccccc3)cc2)CC1 (centres unmarked) [Example 2, 4-([1,1′-Biphenyl]-4-yl)-N-(quinuclidin-3-yl)piperazine-1-carboxamide] | 5.16 | – | – | 5.28 | 5.12 | 6.18 | 5.80 | – |
| O=C(NC1CCN2CCC1CC2)N1CCN(c2ccc(-c3ccccc3)cc2)CC1 (centres unmarked) [Example 3, 4-([1,1′-Biphenyl]-4-yl)-N-(1-azabicyclo[3.2.2]nonan-4-yl)piperazine-1-carboxamide] | 4.96 | – | – | 5.38 | 5.60 | 6.00 | 5.16 | – |
| CC1(NC(=O)N2CCN(c3ccc(-c4ccccc4)cc3)CC2)CCN2CCC1CC2 (centres unmarked) [Example 4, 4-([1,1′-Biphenyl]-4-yl)-N-(4-methyl-1-azabicyclo[3.2.2]nonan-4-yl)piperazine-1-carboxamide] | 6.00 | – | – | 5.21 | 5.20 | 7.20 | 5.86 | – |
| O=C(N1CCN(c2ccc(-c3ccccc3)cc2)CC1)N1CCN2CCC1CC2 [Example 5, (4-([1,1′-Biphenyl]-4-yl)piperazin-1-yl)(1,4-diazabicyclo[3.2.2]nonan-4-yl)methanone] | 4.52 | – | – | 5.70 | 5.70 | 5.70 | 5.70 | – |
| O=C(OC1CN2CCC1CC2)N1CCN(c2ccc(-c3ccccc3)cc2)CC1 (centres unmarked) [Example 6, Quinuclidin-3-yl 4-([1,1′-biphenyl]-4-yl)piperazine-1-carboxylate] | 5.25 | – | – | – | – | – | – | pIC50 [2, 12]: 6.00; pIC50 [3, 13]: 5.45; pIC50 (C32 human melanoma cells; [14]): 5.39; pIC50 (B16 mouse melanoma cells; [15]): 5.28 |
| O=C(NC1CN2CCC1CC2)N1CCN(c2ccccc2)CC1 (centres unmarked) [Example 7, 4-Phenyl-N-(quinuclidin-3-yl)piperazine-1-carboxamide] | 4.91 | – | – | ≤ 5.00 | ≤ 5.00 | 5.15 | < 5.00 | – |
| O=C(NC1CCN2CCC1CC2)N1CCN(c2ccccc2)CC1 (centres unmarked) [Example 8, N-(1-Azabicyclo[3.2.2]nonan-4-yl)-4-phenylpiperazine-1-carboxamide] | 5.48 | 6.29 | < 5.00 | – | – | – | – | pIC50 (C32 human melanoma cells; Homo sapiens; C32 cells; concentration causing 50% cell death; values greater than 10 represent a lack of cell death; read-out: Viability, C32 IC50): ≤ 5.00; pIC50 (B16 mouse melanoma cells; Mus musculus; B16 cells; concentration causing 50% cell death; values greater than 10 represent a lack of cell death; read-out: Viability, B16 IC50): ≤ 5.00 |
| CC1(NC(=O)N2CCN(c3ccccc3)CC2)CN2CCC1CC2 (centres unmarked) [Example 9, N-(3-Methylquinuclidin-3-yl)-4-phenylpiperazine-1-carboxamide] | 4.91 | – | – | ≤ 5.00 | ≤ 5.00 | 5.12 | < 5.00 | – |
| CC1(NC(=O)N2CCN(c3ccccc3)CC2)CCN2CCC1CC2 (centres unmarked) [Example 10, N-(4-Methyl-1-azabicyclo[3.2.2]nonan-4-yl)-4-phenylpiperazine-1-carboxamide] | 4.83 | – | – | ≤ 5.00 | ≤ 5.00 | 5.37 | < 5.00 | – |
| O=C(N1CCN(c2ccccc2)CC1)N1CCN2CCC1CC2 [Example 11, 1,4-Diazabicyclo[3.2.2]nonan-4-yl(4-phenylpiperazin-1-yl)methanone] | 4.68 | – | – | ≤ 5.00 | ≤ 5.00 | < 5.00 | < 5.00 | – |
| O=C(OC1CN2CCC1CC2)N1CCN(c2ccccc2)CC1 (centres unmarked) [Example 12, Quinuclidin-3-yl 4-phenylpiperazine-1-carboxylate] | 4.91 | – | – | – | – | – | – | pIC50 [2, 12]: < 5.00; pIC50 [3, 13]: < 5.00; pIC50 (C32 human melanoma cells; [14]): ≤ 5.00; pIC50 (B16 mouse melanoma cells; [15]): ≤ 5.00 |
| O=C(NC1CN2CCC1CC2)N1CCN(c2cccc(-c3ccccc3)c2)CC1 (centres unmarked) [Example 13, 4-([1,1′-Biphenyl]-3-yl)-N-(quinuclidin-3-yl)piperazine-1-carboxamide] | 5.61 | – | – | 5.07 | ≤ 5.00 | 6.16 | 5.17 | – |
| O=C(NC1CCN2CCC1CC2)N1CCN(c2cccc(-c3ccccc3)c2)CC1 (centres unmarked) [Example 14, 4-([1,1′-Biphenyl]-3-yl)-N-(1-azabicyclo[3.2.2]nonan-4-yl)piperazine-1-carboxamide] | 6.15 | – | – | 5.17 | ≤ 5.00 | 6.97 | 5.47 | – |
